ChEMBL document CHEMBL5608173, “Discovery of novel natural-product-derived mutant isocitrate dehydrogenases 1 inhibitors: Structure-based virtual screening, biological evaluation and structure-activity relationship study” (Eur J Med Chem, 2024)
Calls of active or inactive are those of the source. The calls are words filed in the database; no cut-off is given here.

Key:
[1] = target: T1, Isocitrate dehydrogenase [NADP] cytoplasmic (Homo sapiens, UniProt O75874, R132C); experiment: Inhibition of IDH1 R132C mutant (unknown origin)
[2] = target: T2, Isocitrate dehydrogenase [NADP] cytoplasmic (Homo sapiens, UniProt O75874, R132H); experiment: Inhibition of IDH1 R132H mutant (unknown origin)
[3] = test system: Isocitrate dehydrogenase [NADP] cytoplasmic (Homo sapiens), O75874 [R132H]; experiment: Inhibition of recombinant human IDH1 R132H mutant extracted from Escherichia coli BL21 (DE3) cells using alpha-ketoglutarate as substrate at 0.2 uM incubated for 60 mins in presence of NADPH by absorbance based assay relative to control
[4] = test system: Isocitrate dehydrogenase [NADP] cytoplasmic (Homo sapiens), O75874 [R132H]; experiment: Inhibition of recombinant human IDH1 R132H mutant extracted from Escherichia coli BL21 (DE3) cells using alpha-ketoglutarate as substrate at 2 uM incubated for 60 mins in presence of NADPH by absorbance based assay relative to control
[5] = test system: Isocitrate dehydrogenase [NADP] cytoplasmic (Homo sapiens), O75874 [R132C]; experiment: Inhibition of recombinant human IDH1 R132C mutant extracted from Escherichia coli BL21 (DE3) cells using alpha-ketoglutarate as substrate at 0.2 uM incubated for 60 mins in presence of NADPH by absorbance based assay relative to control
[6] = test system: Isocitrate dehydrogenase [NADP] cytoplasmic (Homo sapiens), O75874 [R132C]; experiment: Inhibition of recombinant human IDH1 R132C mutant extracted from Escherichia coli BL21 (DE3) cells using alpha-ketoglutarate as substrate at 2 uM incubated for 60 mins in presence of NADPH by absorbance based assay relative to control
L02 = experiment: Cytotoxicity against human L02 cells assessed as inhibition of cell growth at 50 uM; type: toxicity, cell-based; details: l02, 50 µM
[7] = target: Isocitrate dehydrogenase [NADP] cytoplasmic (Homo sapiens, UniProt O75874); experiment: Inhibition of recombinant human wildtype IDH1 extracted from Escherichia coli BL21 (DE3) cells using alpha-ketoglutarate as substrate incubated for 60 mins in presence of NADPH by absorbance based assay
[8] = test system: Isocitrate dehydrogenase [NADP] cytoplasmic (Homo sapiens), O75874 [R132H]; experiment: Inhibition of IDH1 R132H mutant in human U-87 MG cells assessed as reduction in 2-HG level at 10 uM incubated for 48 hrs in presence of NAD+ by resazurin fluorescence dye based Sigma MAK320-1 assay kit analysis relative to control; type: cell-based
[9] = target: T1, Isocitrate dehydrogenase [NADP] cytoplasmic; experiment: Inhibition of IDH1 R132C mutant in human HT-1080 cells assessed as reduction in 2-HG level incubated for 48 hrs in presence of NAD+ by resazurin fluorescence dye based Sigma MAK320-1 assay kit analysis; type: cell-based
[10] = target: T2, Isocitrate dehydrogenase [NADP] cytoplasmic; experiment: Inhibition of IDH1 R132H mutant in human U-87 MG cells assessed as reduction in 2-HG level incubated for 48 hrs in presence of NAD+ by resazurin fluorescence dye based Sigma MAK320-1 assay kit analysis; type: cell-based
[11] = target: T1, Isocitrate dehydrogenase [NADP] cytoplasmic; experiment: Inhibition of recombinant human IDH1 R132C mutant extracted from Escherichia coli BL21 (DE3) cells using alpha-ketoglutarate as substrate incubated for 60 mins in presence of NADPH by absorbance based assay
U-87 MG [12] = experiment: Antiproliferative activity against human U-87 MG cells assessed as reduction in cell viability incubated for 72 hrs by MTT assay; type: functional, U-87MG ATCC
U-87 MG [13] = experiment: Antiproliferative activity against human U-87 MG cells harboring IDH1 R132H mutant assessed as reduction in cell viability incubated for 72 hrs by MTT assay; type: functional, U-87MG ATCC
[14] = target: T2, Isocitrate dehydrogenase [NADP] cytoplasmic; experiment: Inhibition of recombinant human IDH1 R132H mutant extracted from Escherichia coli BL21 (DE3) cells using alpha-ketoglutarate as substrate incubated for 60 mins in presence of NADPH by absorbance based assay
HT-1080 [15] = experiment: Antiproliferative activity against human HT-1080 cells harboring IDH1 R132C mutant assessed as reduction in cell viability incubated for 72 hrs by MTT assay; type: functional
HT-1080 [16] = experiment: Antiproliferative activity against human HT-1080 cells harboring IDH1 R132C mutant assessed as reduction in cell viability at 10 uM incubated for 72 hrs by MTT assay; type: functional, cell-based

T2 sequence (O75874 2-414 R132H limits assumed): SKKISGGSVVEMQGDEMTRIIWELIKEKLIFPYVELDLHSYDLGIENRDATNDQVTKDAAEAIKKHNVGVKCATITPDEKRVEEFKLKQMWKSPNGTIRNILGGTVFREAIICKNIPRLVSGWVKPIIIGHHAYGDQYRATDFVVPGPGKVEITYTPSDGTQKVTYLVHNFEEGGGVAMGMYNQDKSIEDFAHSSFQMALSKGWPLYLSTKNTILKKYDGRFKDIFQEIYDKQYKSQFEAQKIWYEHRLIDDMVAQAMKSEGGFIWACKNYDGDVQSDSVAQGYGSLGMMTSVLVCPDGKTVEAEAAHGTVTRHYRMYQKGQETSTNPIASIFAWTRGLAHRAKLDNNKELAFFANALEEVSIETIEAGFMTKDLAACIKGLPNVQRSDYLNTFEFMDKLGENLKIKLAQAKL
Chain of Isocitrate dehydrogenase [NADP] cytoplasmic (Homo sapiens), O75874 [R132C] (O75874 whole entry R132C): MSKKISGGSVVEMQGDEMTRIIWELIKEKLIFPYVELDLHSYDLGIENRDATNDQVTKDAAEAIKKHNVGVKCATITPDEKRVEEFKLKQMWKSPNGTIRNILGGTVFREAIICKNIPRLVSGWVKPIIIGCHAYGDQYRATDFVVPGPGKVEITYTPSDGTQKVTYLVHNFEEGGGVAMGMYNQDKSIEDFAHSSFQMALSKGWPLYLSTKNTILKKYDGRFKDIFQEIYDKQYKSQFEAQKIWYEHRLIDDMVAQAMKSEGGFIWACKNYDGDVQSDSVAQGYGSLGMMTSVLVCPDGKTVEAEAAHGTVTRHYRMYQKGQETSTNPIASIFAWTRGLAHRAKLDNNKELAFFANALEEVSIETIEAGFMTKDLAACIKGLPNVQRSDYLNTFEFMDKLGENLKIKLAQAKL
Chain of Isocitrate dehydrogenase [NADP] cytoplasmic (Homo sapiens, UniProt O75874) (O75874 whole entry): as the sequence (O75874 whole entry R132C) above, with C132R counted along it
T1 sequence (O75874 2-414 R132C limits assumed): as the sequence (O75874 2-414 R132H limits assumed) above, with H131C counted along it
Chain of Isocitrate dehydrogenase [NADP] cytoplasmic (Homo sapiens), O75874 [R132H] (O75874 whole entry R132H): as the sequence (O75874 whole entry R132C) above, with C132H counted along it

Row | inhibition [3] | inhibition [4] | inhibition [5] | inhibition [6] | SMILES | also measured
1 | 33.4% | 91.2% | 11% | 81.2% | COc1cc(OC)c(-c2cc(-c3ccc(O)cc3)nc(-c3ncccn3)n2)cc1CC=C(C)C | –
2 | 7.6% | 51.6% | 10.3% | 41.2% | CCCCc1nc(-c2ccc(O)cc2)cc(-c2cc(CC=C(C)C)c(OC)cc2O)n1 | –
3 | 10.5% | 95.1% | 14.9% | 74.1% | COc1cc(O)c(-c2cc(-c3ccc(O)cc3)nc(-c3ccncc3Cl)n2)cc1CC=C(C)C | –
4 | 17.2% | 81.8% | 24.5% | 67.3% | COc1cc(O)c(-c2cc(-c3ccc(O)cc3)nc(-c3cnccn3)n2)cc1CC=C(C)C | –
5 | 13.6% | 49.1% | 12.5% | 67.2% | COc1cc(O)c(-c2cc(-c3ccc(O)cc3)nc(C)n2)cc1CC=C(C)C | Activity (L02): Toxic
6 | 27% | 88.5% | 37.7% | 96.4% | COc1cc(O)c(-c2cc(-c3ccc(O)cc3)nc(-c3ccccc3)n2)cc1CC=C(C)C | –
7 | 13.5% | 60.4% | 14.7% | 53.1% | COc1cc(O)c(-c2cc(-c3ccc(O)cc3)nc(C(C)(C)C)n2)cc1CC=C(C)C | –
8 | 9.7% | 56.7% | 28.2% | 68.1% | COc1cc(O)c(-c2cc(-c3ccc(O)cc3)nc(-c3ccncc3)n2)cc1CC=C(C)C | Activity (L02): Toxic; GC50 (HT-1080 [15]): 6000 nM; Activity (HT-1080 [16]): Active
9 | 11.1% | 61.1% | inactive | 56.3% | COc1cc(O)c(-c2cc(-c3ccc(O)cc3)nc(-c3nccs3)n2)cc1CC=C(C)C | –
10 | 41.3% | > 100% | 14.6% | > 100% | COc1cc(O)c(-c2cc(-c3ccc(O)cc3)nc(-c3ncccn3)n2)cc1CC=C(C)C | –
11 | 13.4% | 47.2% | 17.8% | 58.6% | COc1cc(O)c(-c2cc(-c3ccc(O)cc3)ncn2)cc1CC=C(C)C | Activity (L02): Toxic
12 | 14.7% | 60.1% | 13.4% | 70.4% | COc1cc(O)c(-c2cc(-c3ccc(O)cc3)nc(C3CCCO3)n2)cc1CC=C(C)C (stereo unspecified) | –
13 | 17.7% | 48.3% | 20.3% | 57.9% | COc1cc(O)c(-c2cc(-c3ccc(O)cc3)nc(-c3cccnc3)n2)cc1CC=C(C)C | Activity (L02): Toxic
14 | 11.2% | 30.7% | 8.9% | 47.5% | COc1cc(O)c(-c2cc(-c3ccc(O)cc3)nc(N)n2)cc1CC=C(C)C | –
15 | 33.1% | 74% | 22.7% | 76.8% | COc1cc(O)c(-c2cc(-c3ccc(O)cc3)nc(-c3ccccn3)n2)cc1CC=C(C)C | Activity (L02): Toxic; GC50 (HT-1080 [15]): 850 nM; GC50 (U-87 MG [12]): >20000 nM; Activity (HT-1080 [16]): Active; GC50 (U-87 MG [13]): >20000 nM

More lines, now with the values behind:

Row | SMILES | inhibition [3] | inhibition [4] | inhibition [5] | inhibition [6] | also measured
16 | COc1c(C)cc(NC(=O)c2nn(Cc3ccc(F)cc3)c3c2CN(C(=O)c2ccc[nH]2)C[C@]3(C)C(N)=O)cc1C | – | – | – | – | IC50 [1]: 8.8 nM; IC50 [2]: 15.2 nM
17 | COc1cc(O)c(-c2cc(-c3ccc(O)cc3)[nH]n2)cc1CC=C(C)C | inactive | 17.5% | 14.2% | 29.1% | –
18 | COc1ccc(-c2cc(-c3cc(CC=C(C)C)c(OC)cc3OC)nc(-c3ncccn3)n2)cc1 | 12.1% | 87.3% | 24.7% | 92.4% | Activity (L02): Toxic
19 | COc1cc(O)c(-c2cc(-c3ccc(O)cc3)nc(N3CCOCC3)n2)cc1CC=C(C)C | 13.8% | 82.1% | 24.1% | 94.6% | –
20 | COc1cc(O)c(-c2cc(-c3ccc(O)cc3)nc(-c3nn(Cc4ccccc4F)c4ncccc34)n2)cc1CC=C(C)C | 30.5% | 89.4% | 40.1% | 81.9% | –
21 | COc1cc(O)c(C(=O)/C=C/c2ccc(O)cc2)cc1CC=C(C)C | 14.9% | 54% | inactive | 46.3% | IC50 [7]: > 20000 nM; inhibition [8]: 35.8%
22 | COc1ccc(-c2cc(-c3ccc(O)cc3)nc(-c3ncccn3)n2)c(O)c1 | 73.1% | > 100% | 82% | 97.5% | EC50 [9]: 279 nM; Activity (L02): Toxic; EC50 [10]: 263 nM; IC50 [11]: 78.9 nM; IC50 [7]: > 20000 nM; GC50 (U-87 MG [12]): >20000 nM; GC50 (U-87 MG [13]): 6800 nM; IC50 [14]: 90.2 nM
23 | O=C(/C=C/c1ccc(O)cc1)OC[C@H]1O[C@@H](Oc2c(-c3ccc(O)cc3)oc3cc(O)cc(O)c3c2=O)[C@H](O)[C@@H](O)[C@@H]1O [TILIROSIDE] | – | 58.1% | – | – | IC50 [7]: > 20000 nM; inhibition [8]: < 10%
24 | COC(=O)N1CCN(c2nc(-c3ccc(O)cc3)cc(-c3cc(CC=C(C)C)c(OC)cc3O)n2)CC1 | 21.1% | 75.4% | 24.6% | 80.1% | –
25 | COCOc1ccc(/C=C/C(=O)c2cc(CC=C(C)C)c(OC)cc2OC)cc1 | inactive | inactive | inactive | inactive | –
26 | COCOc1ccc(/C=C/C(=O)c2cc(CC=C(C)C)c(OC)cc2O)cc1 | inactive | inactive | inactive | inactive | –
27 | COc1cc(O)c(-c2cc(-c3ccc(O)cc3)nc(N3CCCCC3)n2)cc1CC=C(C)C | 9.4% | 93.6% | 11.8% | 89.7% | –
28 | CC(Cc1ccc(O)c(O)c1)C(C)Cc1ccc(O)c(O)c1 (stereo unspecified) [NORDIHYDROGUAIARETIC ACID] | – | 51.2% | – | – | IC50 [7]: > 20000 nM; inhibition [8]: < 10%
29 | COc1cc(OC)c(C(=O)/C=C/c2ccc(O)cc2)cc1CC=C(C)C | inactive | inactive | inactive | inactive | –
30 | COc1cc(O)c(-c2cc(-c3ccc(O)cc3)nc(N3CCCC3)n2)cc1CC=C(C)C | 5% | 70.2% | 30.9% | 84.3% | –
31 | COc1cc(O)c(-c2cc(-c3ccc(O)cc3)nc(N3CCN(C(C)=O)CC3)n2)cc1CC=C(C)C | 34.7% | 61.2% | 12.8% | 69.4% | –
32 | COc1cc(O)c(-c2cc(-c3ccc(O)cc3)nc(N3CCN(c4ncccn4)CC3)n2)cc1CC=C(C)C | inactive | 37.4% | 10.4% | 32.5% | –
